{"source": "patent US6699849B1", "about": "“Cyclodextrin complexes of benzodiazepines” (Cyclops, ehf., priority 1998, dated 2004)", "key": {"[1]": {"assay": "First-order rate constant of diazepine ring-closure (regeneration of the benzodiazepine)", "format": "physicochemical", "conditions": "pH 7.5, 37° C.", "protocol": "The effect of cyclodextrins and organic solvents on the rate of diazepine ring-closure of several selected benzodiazepines was investigated. Stock solutions containing 1.0×10^−3 M of the benzodiazepine in 0.10 M aqueous hydrochloric acid solution (pH approx. 1.1) were prepared and stored at 37.0° C. The benzodiazepines were in the ring-open form in these stock solutions. Aqueous 0.50 M tris buffer (pH 7.50) solution was prepared. The observed first-order rate constant for the closing (i.e. formation) of the benzodiazepine ring was determined in the following reaction media: a) pure aqueous tris buffer solution; b) aqueous tris buffer solution containing 10% (w/v) cyclodextrin; c) tris buffer solution containing 10% (w/v) cyclodextrin and 10% (v/v) ethanol (EtOH); d) tris buffer solution containing 10% (w/v) cyclodextrin and 50% (v/v) EtOH; e) tris buffer solution containing 10% (w/v) cyclodextrin and 10% (v/v) dimethylsulfoxide (DMSO); and f) tris buffer solution containing 10% (w/v) cyclodextrin and 50% (w/v) DMSO. The stock solution (30 μl) was added to 1.50 ml of the reaction media which had previously been equilibrated to 37.0° C. and the first-order rate constant for the appearance of the closed form determined from the appearance of the closed form as observed on HPLC. Tables 5, 6 and 7 show the effects of cyclodextrins, EtOH and DMSO on the observed first-order rate constant for the regeneration of alprazolam, triazolam and midazolam, respectively. In pure aqueous buffer solutions, addition of EtOH and DMSO decreases somewhat the rate of ring closure, at least in the case of alprazolam and midazolam. Addition of cyclodextrin or the organic solvents have insignificant effect on the pH under these conditions. The dielectric constant of the reaction medium will, however, decrease upon addition of the organic solvents. It is possible that this decrease in the dielectric constant will reduce the ability of the reaction media to stabilize the transition state which could explain the decrease in the observed rate constant. […] The cyclodextrins formed stable complexes with the ring-open form of the drug and, thus, the rate decreased upon addition of cyclodextrin. […] EtOH and DMSO will compete with the diazepine ring-open form for a space in the cyclodextrin cavity resulting in decreased complexation."}, "[2]": {"assay": "Solubility of midazolam versus pH in buffer, 10% HPβCD and 10% HPβCD + 0.10% HPMC", "format": "physicochemical", "conditions": "10% (w/v) HPβCD + 0.10% (w/v) HPMC, FIG. 3", "protocol": "Midazolam is a water-insoluble weak base (pKa 6.2) which forms a somewhat water-soluble cation in acidic solution. Solubility (S) of midazolam at several different pH levels was determined in: a) pure aqueous buffer solutions (i.e. without HPβCD and HPMC); b) aqueous buffer solutions containing 10% (w/v) 2-hydroxypropyl-β-cyclodextrin (HPβCD) of molar substitution (MS)=0.3; and c) aqueous solutions containing 10% (w/v) 2-hydroxypropyl-β-cyclodextrin (HPβCD) of molar substitution (MS)=0.3 and 0.10% (w/v) hydroxypropyl methylcellulose (HPMC) 4000. Excess amount of the drug was added to the aqueous solution and the suspension formed was heated in a sealed container in an autoclave (120-140° C. for 20-40 minutes). After equilibration at room temperature (22-23° C.) for seven days, the suspension was filtered through a 0.45 μm membrane filter, diluted with aqueous methanolic solution and the amount of dissolved midazolam determined by a high pressure liquid chromatographic method (HPLC). FIG. 3 illustrates the effect of pH (i.e. the ring-opening) on the solubility of midazolam (pKa 6.2) in pure aqueous buffer solutions (●), aqueous buffer solutions containing 10% (w/v) HPβCD (▪), and aqueous buffer solutions containing both 10% (w/v) HPβCD and 0.10% (w/v) HPMC (♦) at room temperature."}, "[3]": {"assay": "Solubility of midazolam versus pH with cyclodextrins and 10% (v/v) acetic acid", "format": "physicochemical", "protocol": "Excess amount of the drug was added to the aqueous HPβCD solution and the suspension formed was heated in a sealed container in an autoclave (120-140° C. for 20-40 minutes). After equilibration at room temperature (22-23° C.) for seven days, the suspension was filtered through a 0.45 μm membrane filter, diluted with aqueous methanolic solution and the amount of dissolved midazolam determined by a high pressure liquid chromatographic method (HPLC). FIG. 4 illustrates the effects of cyclodextrins, pH and 10% (v/v) acetic acid on the solubility of midazolam in aqueous solutions: pure aqueous buffer solution (▴); aqueous 10% (v/v) acetate solution (●); 10% (w/v) HPβCD solution containing 0.10% (w/v) HPMC in aqueous 10% (v/v) acetic acid solution (▪); 10% (w/v) aqueous SBEβCD solution in aqueous 10% (v/v) acetate (♦)."}, "[4]": {"assay": "Effect of pH and cyclodextrins on the fraction of the open form (diazepine ring-opening) of benzodiazepines", "format": "physicochemical", "protocol": "The cyclodextrin concentration was 10% (w/v) and the benzodiazepine concentration was 1×10^−4 M. The concentration of the closed form was determined immediately after dissolving the benzodiazepine in the aqueous cyclodextrin solution and again 24 hours later (i.e. after equilibration at 23° C.). Preliminary experiments had shown that equilibrium between the closed and the open form was attained within 3 hours at 23° C."}, "[5]": {"conditions": "cited from earlier work; for solubility in water: room temperature (25° C.)"}, "[6]": {"format": "physicochemical", "description": "It is possible to enhance the cyclodextrin (CD) complexation efficacy, or efficiency, of drugs (D), and other “guest” molecules, by either increasing the apparent stability constant (KC) of the drug-cyclodextrin complex (D-CD) or increasing the apparent intrinsic solubility (S0) of the drug. For example, KC can be increased by addition of water-soluble polymers to the aqueous complexation media and S0 can be increased by ionization of the drug molecule, as described previously. […] On the other hand, if the drug-cyclodextrin complexes are prepared under conditions which ensure enhanced complexation and if the complexation efficiency decreases upon administration, then enhanced drug availability will be observed. Thus, the present invention involves: i) enhancement of the complexation efficiency and ii) reduction of the complexation efficiency after administration. For example, it is possible to enhance the complexation efficiency of many ionizable drugs by preparing the complexes at a pH where the drug is ionized but obtain decreased efficiency upon administration due to pH changes and consequent decreased ionization. One example of such a drug is phenytoin (pKa 8.1). […]"}, "[7]": {"conditions": "cited from earlier work"}}, "note": "Where two headings read alike, the source gives them in different places.", "data": [{"smiles": "Cc1ncc2n1-c1ccc(Cl)cc1C(c1ccccc1F)=NC2", "note": "[midazolam, 8-chloro-6-(2-fluorophenyl)-1-methyl-4H-imidazo[1,5-a][1,4]benzodiazepine]", "values": [{"measurement": "observed first-order rate constant, ring formation", "setting": "[1]; 10% HPβCD, 10% DMSO", "result": 0.0336, "unit": "min⁻¹"}, {"measurement": "observed first-order rate constant, ring formation", "setting": "[1]; 10% HPβCD, 10% EtOH", "result": 0.0386, "unit": "min⁻¹"}, {"measurement": "observed first-order rate constant, ring formation", "setting": "[1]; 10% HPβCD, 50% DMSO", "result": 0.084, "unit": "min⁻¹"}, {"measurement": "observed first-order rate constant, ring formation", "setting": "[1]; 10% HPβCD, 50% EtOH", "result": 0.0653, "unit": "min⁻¹"}, {"measurement": "observed first-order rate constant, ring formation", "setting": "[1]; 10% HPβCD, pure water", "result": 0.0277, "unit": "min⁻¹"}, {"measurement": "observed first-order rate constant, ring formation", "setting": "[1]; 10% RMβCD, 10% DMSO", "result": 0.0494, "unit": "min⁻¹"}, {"measurement": "observed first-order rate constant, ring formation", "setting": "[1]; 10% RMβCD, 10% EtOH", "result": 0.0424, "unit": "min⁻¹"}, {"measurement": "observed first-order rate constant, ring formation", "setting": "[1]; 10% RMβCD, 50% DMSO", "result": 0.0848, "unit": "min⁻¹"}, {"measurement": "observed first-order rate constant, ring formation", "setting": "[1]; 10% RMβCD, 50% EtOH", "result": 0.0699, "unit": "min⁻¹"}, {"measurement": "observed first-order rate constant, ring formation", "setting": "[1]; 10% RMβCD, pure water", "result": 0.0305, "unit": "min⁻¹"}, {"measurement": "observed first-order rate constant, ring formation", "setting": "[1]; 10% SBEβCD, 10% DMSO", "result": 0.0224, "unit": "min⁻¹"}, {"measurement": "observed first-order rate constant, ring formation", "setting": "[1]; 10% SBEβCD, 10% EtOH", "result": 0.033, "unit": "min⁻¹"}, {"measurement": "observed first-order rate constant, ring formation", "setting": "[1]; 10% SBEβCD, 50% DMSO", "result": 0.0855, "unit": "min⁻¹"}, {"measurement": "observed first-order rate constant, ring formation", "setting": "[1]; 10% SBEβCD, 50% EtOH", "result": 0.065, "unit": "min⁻¹"}, {"measurement": "observed first-order rate constant, ring formation", "setting": "[1]; 10% SBEβCD, pure water", "result": 0.013, "unit": "min⁻¹"}, {"measurement": "observed first-order rate constant, ring formation", "setting": "[1]; No CD, 10% DMSO", "result": 0.138, "unit": "min⁻¹"}, {"measurement": "observed first-order rate constant, ring formation", "setting": "[1]; No CD, 10% EtOH", "result": 0.126, "unit": "min⁻¹"}, {"measurement": "observed first-order rate constant, ring formation", "setting": "[1]; No CD, 50% DMSO", "result": 0.109, "unit": "min⁻¹"}, {"measurement": "observed first-order rate constant, ring formation", "setting": "[1]; No CD, 50% EtOH", "result": 0.0841, "unit": "min⁻¹"}, {"measurement": "observed first-order rate constant, ring formation", "setting": "[1]; No CD, pure water", "result": 0.179, "unit": "min⁻¹"}, {"measurement": "effect of addition of HPMC on complexation efficiency", "setting": "[2]", "result": "significantly improves"}, {"measurement": "effect of 10% (v/v) acetic acid co-solvent on fraction of the open ring form", "setting": "[3]", "result": "small decrease"}, {"measurement": "effect of addition of 10% (v/v) acetic acid on complexation", "setting": "[3]; cyclodextrin solutions, FIG. 4", "result": "significantly improves"}, {"measurement": "Fraction open", "setting": "[4]; 10% (w/v) HPβCD, pH 2, approx. 23° C.", "result": 0.56}, {"measurement": "Fraction open", "setting": "[4]; 10% (w/v) HPβCD, pH 3, approx. 23° C.", "result": 0.18}, {"measurement": "Fraction open", "setting": "[4]; 10% (w/v) HPβCD, pH 4, approx. 23° C.", "result": 0.23}, {"measurement": "Fraction open", "setting": "[4]; 10% (w/v) SBEβCD, pH 2, approx. 23° C.", "result": 0.81}, {"measurement": "Fraction open", "setting": "[4]; 10% (w/v) SBEβCD, pH 3, approx. 23° C.", "result": 0.39}, {"measurement": "Fraction open", "setting": "[4]; 10% (w/v) SBEβCD, pH 4, approx. 23° C.", "result": 0.11}, {"measurement": "Fraction open", "setting": "[4]; 10% (w/v) αCD, pH 2, approx. 23° C.", "result": 0.79}, {"measurement": "Fraction open", "setting": "[4]; 10% (w/v) αCD, pH 3, approx. 23° C.", "result": 0.32}, {"measurement": "Fraction open", "setting": "[4]; 10% (w/v) αCD, pH 4, approx. 23° C.", "result": 0.10}, {"measurement": "Fraction open", "setting": "[4]; 10% (w/v) γCD, pH 2, approx. 23° C.", "result": 0.61}, {"measurement": "Fraction open", "setting": "[4]; 10% (w/v) γCD, pH 3, approx. 23° C.", "result": 0.21}, {"measurement": "Fraction open", "setting": "[4]; 10% (w/v) γCD, pH 4, approx. 23° C.", "result": 0.17}, {"measurement": "Fraction open", "setting": "[4]; no cyclodextrin, pH 2, approx. 23° C.", "result": 0.74}, {"measurement": "Fraction open", "setting": "[4]; no cyclodextrin, pH 3, approx. 23° C.", "result": 0.28}, {"measurement": "Fraction open", "setting": "[4]; no cyclodextrin, pH 4, approx. 23° C.", "result": 0.18}]}, {"smiles": "O=C1NC(=O)C(c2ccccc2)(c2ccccc2)N1", "note": "[phenytoin, 5,5-diphenyl-2,4-imidazolidinedione]", "values": [{"measurement": "solubility with 25% (w/v) 2-hydroxypropyl-β-cyclodextrin", "setting": "[5]; pH 5", "result": 5000, "unit": "µg/mL"}, {"measurement": "solubility with 25% (w/v) 2-hydroxypropyl-β-cyclodextrin", "setting": "[5]; pH 8", "result": 6400, "unit": "µg/mL"}, {"measurement": "solubility in water", "setting": "[5]; pH 5", "result": 18, "unit": "µg/mL"}, {"measurement": "solubility in water", "setting": "[5]; pH 8", "result": 32, "unit": "µg/mL"}, {"measurement": "solubility enhancement by 25% (w/v) 2-hydroxypropyl-β-cyclodextrin", "setting": "[6]; pH 5", "result": 280, "unit": "fold"}, {"measurement": "solubility enhancement by 25% (w/v) 2-hydroxypropyl-β-cyclodextrin", "setting": "[6]; pH 8", "result": 200, "unit": "fold"}, {"measurement": "pKa", "setting": "[7]", "result": 8.1}]}]}
